The values that follow come from patent publication US20250270222A1, “AP2 ASSOCIATED KINASE 1 INHIBITORS AND USES THEREOF” (Satellos Bioscience Inc., priority 2023, published 2025).

Assay [1] has as its target AAK1 (amino acids T27-A365) (Homo sapiens (Human), UniProt Q2M2I8). In words: AAK1 pSENs assay. The format is biochemical. Particulars: for AAK1:GAK pSENs Selectivity: ratio of AAK1 pSENs activity to GAK pSENs activity; for IC50: read-out: AAK1 pSENs:EIC50. The essentials:
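Untagged, biotinylated E. coli-expressed AAK1 at 20 nM preincubated with compound 15 min at 25° C in HEPES pH 7.5 buffer with 10 mM MgCl2 and 1 mM DTT. Reaction started with AQT0759 and ATP, added as 30 uM and 70 uM solutions in equal volume.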

In the next assay the target is AAK1 (Homo sapiens (Human), UniProt Q2M2I8). In words: pAP2M1 cell-based assay (In-Cell Western). As to conditions: Hela cells co-transfected with AP2M1 and AAK1, 3 hr treatment, Phospho-AP2M1 (Thr156). From the text:
pAP2M1 Cell-Based Assay (In-Cell Western):
The plate was read on Licor Odyssey CLx imaging system (LICOR) to acquire fluorescence intensity at 700 channel and 800 channel.
Data analysis: Fluorescence intensity at 700 channel served as internal standard and 800 channel were normalized with 700 channel.

Assay [2] addresses BIKE (amino acids S38-E345) (K320A, K321A) (Homo sapiens (Human), UniProt Q9NSY1, K320A/K321A). In words: BIKE pSENs assay. In kind it is biochemical. The method, then: The recombinant proteins were independently expressed in Esherichia coli BL21(DE3) cells cultured in Luria-Bertani (LB) medium until OD600 reached 0.6-0.8, then cooled to 15° C., and supplemented with 0.5 mM isopropyl 1-thio-D-galactopyranoside (IPTG) induce protein expression 16 h. Cells were harvested and resuspended in lysis buffer (50 mM HEPES pH 7.5, 500 mM NaCl, 5 mM imidazole, 5% glycerol, 0.5 mM Tris (2-carboxyethyl) phosphine (TCEP), cOmplete Protease Inhibitor Tablet (Roche)) and lysed by microfluidics high pressure homogenizer (UH-06, Union-Biotech). Proteins were purified using Ni-Affinity chromatography (His FF column, Bestchrom) and eluted stepwise in binding buffer with 20-300 mM imidazole. Removal of the hexahistidine tag was performed at 4° C. overnight using recombinant TEV protease and reacted with BirA to obtain the corresponding biotinylated-AAK1. BIKE or GAK proteins. Further separated in the reverse Strep column (Strep-Tactin® XT, IBA). The Biotin elution sample was collected containing untagged biotinylated protein was then purified by Ion-exchange chromatography (Mono Q 10/100 GL, Cytiva) and Size-exclusion chromatography (HiLoad 16/600 Superdex 200 pg, Cytiva). The pure protein was stored in a storage buffer 50 mM HEPES (pH 7.5), 300 mM NaCl, 5% glycerol at −80° C. Protein were characterized by SDS-PAGE. LC-MS and aSEC.
BIKE protein was dissolved at 20 nM in 1× enzyme solution (50 mM HEPES pH7.5, 10 mM MgCl2, 1 mM DTT, 1% glycerol, 0.5 mM EGTA, 0.01% Briji35, 0.02% BSA) and 12.5 ul was incubated with 250 nl DMSO or 250 nl compound in DMSO at 25° C. for 15 min. The reaction was started by addition of 12.5 ul of 30 uM AQT0759 (Assayquant, CSKS-AQT0759B) and 40 uM ATP which were diluted in 1× substrate dilution buffer (50 mM HEPES pH7.5, 10 mM MgCl2. 1 mM DTT, 1% glycerol, 0.5 mM EGTA, 0.01% Briji35).

Assay [3] deals with GAK (amino acids Q25-N335) (Homo sapiens (Human), UniProt O14976). Put plainly: GAK pSENs assay. In kind it is biochemical.
Sequence of GAK (amino acids Q25-N335) (O14976 25-335): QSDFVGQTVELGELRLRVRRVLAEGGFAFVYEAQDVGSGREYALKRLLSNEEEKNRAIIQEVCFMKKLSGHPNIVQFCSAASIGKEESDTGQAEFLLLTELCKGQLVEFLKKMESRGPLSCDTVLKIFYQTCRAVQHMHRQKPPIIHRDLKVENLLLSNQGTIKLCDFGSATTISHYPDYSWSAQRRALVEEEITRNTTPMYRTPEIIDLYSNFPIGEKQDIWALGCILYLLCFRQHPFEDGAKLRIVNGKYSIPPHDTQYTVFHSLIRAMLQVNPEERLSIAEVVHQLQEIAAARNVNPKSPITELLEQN

Sequence of BIKE (amino acids S38-E345) (K320A, K321A) (Q9NSY1 38-345 K320A/K321A): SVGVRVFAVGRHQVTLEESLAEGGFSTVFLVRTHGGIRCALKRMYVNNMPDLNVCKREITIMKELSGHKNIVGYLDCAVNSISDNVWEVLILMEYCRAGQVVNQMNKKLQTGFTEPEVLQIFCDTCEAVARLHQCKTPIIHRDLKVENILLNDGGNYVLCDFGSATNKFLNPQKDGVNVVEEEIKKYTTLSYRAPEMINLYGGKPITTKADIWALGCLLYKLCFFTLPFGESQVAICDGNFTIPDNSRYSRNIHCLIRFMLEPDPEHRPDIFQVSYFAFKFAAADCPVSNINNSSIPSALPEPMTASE
Sequence of AAK1 (amino acids T27-A365) (Q2M2I8 27-365): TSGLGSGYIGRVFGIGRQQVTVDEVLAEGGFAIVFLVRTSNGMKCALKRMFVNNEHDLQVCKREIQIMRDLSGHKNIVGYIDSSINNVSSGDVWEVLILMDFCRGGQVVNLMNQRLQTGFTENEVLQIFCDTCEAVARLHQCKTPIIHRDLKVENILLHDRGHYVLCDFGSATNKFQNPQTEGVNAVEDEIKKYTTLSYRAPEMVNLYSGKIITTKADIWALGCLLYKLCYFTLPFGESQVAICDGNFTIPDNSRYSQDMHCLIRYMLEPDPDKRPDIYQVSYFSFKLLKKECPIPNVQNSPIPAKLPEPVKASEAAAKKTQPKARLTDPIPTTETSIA
Sequence of AAK1 (Q2M2I8 whole entry): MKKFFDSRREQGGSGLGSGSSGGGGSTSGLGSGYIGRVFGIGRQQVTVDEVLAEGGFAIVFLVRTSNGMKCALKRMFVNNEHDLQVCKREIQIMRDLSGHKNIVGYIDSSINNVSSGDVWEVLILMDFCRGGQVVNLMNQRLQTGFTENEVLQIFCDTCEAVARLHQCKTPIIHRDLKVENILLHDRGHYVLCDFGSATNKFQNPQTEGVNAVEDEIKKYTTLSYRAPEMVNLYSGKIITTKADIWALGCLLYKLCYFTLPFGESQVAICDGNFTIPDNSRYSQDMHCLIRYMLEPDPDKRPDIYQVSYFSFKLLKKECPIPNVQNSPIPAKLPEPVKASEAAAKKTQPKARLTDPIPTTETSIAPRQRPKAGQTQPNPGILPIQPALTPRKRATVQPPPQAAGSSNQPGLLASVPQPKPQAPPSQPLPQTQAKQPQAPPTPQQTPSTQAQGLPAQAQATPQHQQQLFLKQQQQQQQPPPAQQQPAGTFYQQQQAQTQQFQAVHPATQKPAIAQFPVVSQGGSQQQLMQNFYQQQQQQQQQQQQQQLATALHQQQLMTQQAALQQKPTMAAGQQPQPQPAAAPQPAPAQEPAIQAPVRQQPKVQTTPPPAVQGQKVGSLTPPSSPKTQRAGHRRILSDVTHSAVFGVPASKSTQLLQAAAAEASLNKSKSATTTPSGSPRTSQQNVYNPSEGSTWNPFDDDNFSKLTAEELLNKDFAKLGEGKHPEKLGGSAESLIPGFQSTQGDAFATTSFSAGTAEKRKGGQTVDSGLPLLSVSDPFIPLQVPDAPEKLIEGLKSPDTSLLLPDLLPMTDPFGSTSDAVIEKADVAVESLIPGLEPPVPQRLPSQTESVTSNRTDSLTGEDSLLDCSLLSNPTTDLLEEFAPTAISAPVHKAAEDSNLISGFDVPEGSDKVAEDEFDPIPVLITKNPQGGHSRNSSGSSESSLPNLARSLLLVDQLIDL

Regarding `C[C@]1(OC(=O)N2CCN(c3ccn4ncc(-c5cccnc5OC5CC5)c4n3)CC2)CCNC1` (single isomer, unassigned) [Compound I-13], the “AAK1:GAK pSENs Selectivity” value in assay [1] was “B (B: 0.016-0.075)”. Also, the IC50 in assay [1] fell in the range of 0.001 to 0.05 µM; at AAK1 it was 0.001 to 0.05 µM; in assay [2] it was 0.001 to 0.05 µM; in assay [3], 0.051 to 0.15 µM.
On to `O=C1C[C@H](OC(=O)N2CCN(c3ccn4ncc(-c5cccnc5OC5CNC5)c4n3)CC2)CN1` [Compound I-43, [(3S)-5-Oxopyrrolidin-3-yl]4-[3-[2-(azetidin-3-yloxy)-3-pyridyl]pyrazolo[1,5-a]pyrimidin-5-yl]piperazine-1-carboxylate], for which the “AAK1:GAK pSENs Selectivity” value in assay [1] is listed as “D (D: 0.16-1.00)”. Also, the IC50 (in assay [1]; on AAK1; in assay [2]; in assay [3]) was over 1.5 µM in each case.
With `O=C(O[C@H]1CO[C@H]2OCC[C@H]21)N1CCN(c2ccn3ncc(-c4ccccc4OC4CC4)c3n2)CC1` [Compound I-68, [(3aS,4R,6aR)-2,3,3a, 4,5,6a-hexahydrofuro[2,3-b]furan-4-yl]4-[3-[2-(cyclopropoxy)phenyl]pyrazolo[1,5-a]pyrimidin-5-yl]piperazine-1-carboxylate], the “AAK1:GAK pSENs Selectivity” value in assay [1] is reported as “A (A: ≤0.015)”. The IC50 in assay [2] and in assay [3] was over 1.5 µM in each case.
In the case of `COC(=O)N1CC(Oc2ncccc2-c2cnn3ccc(N4CCN(C(=O)O[C@@H]5CC(=O)N(CCOCc6ccccc6)C5)CC4)nc23)C1` [Compound I-84-6, [(3R)-1-(2-benzyloxyethyl)-5-oxo-pyrrolidin-3-yl]-4-[3-[2-(1-methoxycarbonyl-azetidin-3-yl)oxy-3-pyridyl]pyrazolo[1,5-a]pyrimidin-5-yl]piperazine-1-carboxylate], the “AAK1:GAK pSENs Selectivity” value in assay [1] is recorded as “B (B: 0.016-0.075)”. Also, the IC50 in assay [2] and in assay [3] was over 1.5 µM in each case.
Take `COC(=O)N1CC(Oc2ncccc2-c2cnn3ccc(N4CCN(C(=O)O[C@@H]5CC(=O)N(C6COC6)C5)CC4)nc23)C1` [Compound I-85, [(3R)-1-(oxetan-3-yl)-5-oxo-pyrrolidin-3-yl]-4-[3-[2-(1-methoxycarbonylazetidin-3-yl)oxy-3-pyridyl]pyrazolo[1,5-a]pyrimidin-5-yl]piperazine-1-carboxylate]: in assay [1], the “AAK1:GAK pSENs Selectivity” value is on record as “C (C: 0.076-0.15)”. Also, the IC50 in assay [2] and in assay [3] was over 1.5 µM each time.
Regarding `Cc1nn2ccc(N3CCN(C(=O)O[C@H]4CC(=O)N(C)C4)CC3)nc2c1-c1cccnc1OC1CC1` [Compound I-108, [(3S)-1-methyl-5-oxo-pyrrolidin-3-yl]-4-[3-[2-(cyclopropoxy)-3-pyridyl]-2-methyl-pyrazolo[1,5-a]pyrimidin-5-yl]piperazine-1-carboxylate], in assay [1], the “AAK1:GAK pSENs Selectivity” value is “E (E: >1.00)”. Also, the IC50 in assay [2] and in assay [3] was over 1.5 µM each time.
As for `CN1C[C@@H](OC(=O)N2CCN(c3nc4c(-c5cccnc5OC5CC5)cnn4cc3O)CC2)CC1=O` [Compound I-110, [(3S)-1-methyl-5-oxo-pyrrolidin-3-yl]-4-[3-[2-(cyclopropoxy)-3-pyridyl]-6-hydroxy-pyrazolo[1,5-a]pyrimidin-5-yl]piperazine-1-carboxylate], the “AAK1:GAK pSENs Selectivity” value in assay [1] is given as “E (E: >1.00)”. Besides, the IC50 in assay [2] and in assay [3] was over 1.5 µM each time.
As to `COc1cn2ncc(-c3cccnc3OC3CC3)c2nc1N1CCN(C(=O)O[C@H]2CC(=O)N(C)C2)CC1` [Compound I-110-9, [(3S)-1-methyl-5-oxo-pyrrolidin-3-yl]-4-[3-[2-(cyclopropoxy)-3-pyridyl]-6-methoxy-pyrazolo[1,5-a]pyrimidin-5-yl]piperazine-1-carboxylate], in assay [1], the “AAK1:GAK pSENs Selectivity” value was “E (E: >1.00)”. For the same compound, the IC50 in assay [2] and in assay [3] was over 1.5 µM in each case.
As for `Cc1cn2ncc(-c3cccnc3OC3CC3)c2nc1N1CCN(C(=O)O[C@H]2CC(=O)N(C)C2)CC1` [Compound I-111, [(3S)-1-methyl-5-oxo-pyrrolidin-3-yl]-4-[3-[2-(cyclopropoxy)-3-pyridyl]-6-methyl-pyrazolo[1,5-a]pyrimidin-5-yl]piperazine-1-carboxylate], the “AAK1:GAK pSENs Selectivity” value in assay [1] is “C (C: 0.076-0.15)”. For the same compound, the IC50 in assay [2] and in assay [3] was over 1.5 µM throughout.
Take `CN1C[C@@H](OC(=O)N2CCN(c3nc4c(-c5cccnc5OC5CCCCC5)cnn4cc3F)CC2)CC1=O` [Compound I-123, [(3S)-1-methyl-5-oxo-pyrrolidin-3-yl]-4-[3-[2-(cyclohexoxy)-3-pyridyl]-6-fluoro-pyrazolo[1,5-a]pyrimidin-5-yl]piperazine-1-carboxylate]: the “AAK1:GAK pSENs Selectivity” value in assay [1] was “C (C: 0.076-0.15)”. In addition, the IC50 in assay [2] and in assay [3] was over 1.5 µM throughout.
